Results reported in ChEMBL document CHEMBL6103622 (J Med Chem, 2025).
Calls of active or inactive are those of the source. The calls are words filed in the database; no cut-off is given here.

What was measured:
[1] = tested on: MC-38; experiment: Antitumor activity against mouse MC38 cells allografted in C57BL/6 mouse model assessed as downregulation of […] mRNA expression in tumor at 10 to 20 mg/kg, ip administered once daily for 14 days by qPCR analysis; format: functional, organism-based; conditions: dose 10-20 mg/kg, time 14.0 day
[2] = tested on: MC-38; experiment: Induction of apoptosis in mouse MC38 cells cocultured with condition medium of M2 macrophages assessed as early apoptotic cells at 30 nM by Annexin V/PI staining based flow cytometric analysis (reference value: 3.16 %); format: functional
[3] = AUC (0 to infinity) in Sprague-Dawley rat at 1 mg/kg, iv; format: ADME, organism-based; conditions: in vivo
[4] = tested on: BMDM; experiment: Induction of repolarization of M2 like macrophage into M1 phenotype in female C57BL/6 mouse BMDM cells assessed as increase in Tnf mRNA expression at 10 to 100 nM stimulated with mouse IL4/IL-13 for 24 hrs followed by compound addition and measured after 24 hrs by qPCR analysis; format: functional, cell-based; conditions: dose 10-100 nM
[5] = tested on: MC-38; experiment: Antitumor activity against mouse MC38 cells allografted in C57BL/6 mouse model assessed as reduction in tumor volume at 20 mg/kg, ip administered once daily for 14 days relative to control; format: functional; set-up: scale not given: the % may be the effect or the level left; conditions: time 14 day
[6] = Oral bioavailability in Sprague-Dawley rat at 10 mg/kg; format: ADME, organism-based; conditions: in vivo
[7] = tested on: MC-38; experiment: Inhibition of cell viability in mouse MC38 cells at 10 to 100 nM by MTT assay; format: functional, cell-based; conditions: dose 10-100 nM
[8] = tested on: MC-38; experiment: Antitumor activity against mouse MC38 cells allografted in C57BL/6 mouse model assessed as reduction in tumor volume at 10 mg/kg, ip administered once daily for 14 days relative to control; format: functional; set-up: scale not given: the % may be the effect or the level left; conditions: time 14 day
[9] = tested on: MC-38; experiment: Induction of apoptosis in mouse MC38 cells cocultured with condition medium of M2 macrophages assessed as late apoptotic cells at 100 nM by Annexin V/PI staining based flow cytometric analysis (reference value: 1.66 %); format: functional
[10] = target: BDNF/NT-3 growth factors receptor (Homo sapiens) (UniProt Q16620); experiment: Inhibition of TRKB (unknown origin) at 1 uM
BDNF/NT-3 growth factors receptor (Homo sapiens), sequence (Q16620 32-822 limits assumed): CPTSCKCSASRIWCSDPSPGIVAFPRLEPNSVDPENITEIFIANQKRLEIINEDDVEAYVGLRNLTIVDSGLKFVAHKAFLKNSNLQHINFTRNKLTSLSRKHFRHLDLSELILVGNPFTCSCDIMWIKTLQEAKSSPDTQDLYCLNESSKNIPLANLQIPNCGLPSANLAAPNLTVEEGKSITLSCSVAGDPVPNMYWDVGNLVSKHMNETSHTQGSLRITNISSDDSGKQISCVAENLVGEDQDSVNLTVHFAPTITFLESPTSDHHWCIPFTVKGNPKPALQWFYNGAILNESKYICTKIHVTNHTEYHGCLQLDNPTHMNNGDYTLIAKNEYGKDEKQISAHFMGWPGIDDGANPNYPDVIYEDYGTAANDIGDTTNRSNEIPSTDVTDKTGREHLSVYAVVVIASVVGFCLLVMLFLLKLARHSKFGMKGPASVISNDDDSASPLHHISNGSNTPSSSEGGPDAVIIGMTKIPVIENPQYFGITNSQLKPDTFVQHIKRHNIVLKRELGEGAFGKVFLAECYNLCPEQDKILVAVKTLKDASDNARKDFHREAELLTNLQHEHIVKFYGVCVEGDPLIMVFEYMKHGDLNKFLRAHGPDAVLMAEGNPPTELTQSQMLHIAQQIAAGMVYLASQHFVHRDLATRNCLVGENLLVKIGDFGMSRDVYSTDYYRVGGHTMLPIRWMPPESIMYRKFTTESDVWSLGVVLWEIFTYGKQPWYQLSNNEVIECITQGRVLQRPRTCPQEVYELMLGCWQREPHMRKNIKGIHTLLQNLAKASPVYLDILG

[11] = tested on: MC-38; experiment: Induction of apoptosis in mouse MC38 cells cocultured with condition medium of M2 macrophages assessed as late apoptotic cells at 30 nM by Annexin V/PI staining based flow cytometric analysis (reference value: 1.66 %); format: functional
[12] = tested on: MC-38; experiment: Antitumor activity against mouse MC38 cells allografted in C57BL/6 mouse model assessed as upregulation of Tnf mRNA expression in tumor at 10 to 20 mg/kg, ip administered once daily for 14 days by qPCR analysis; format: functional, organism-based; conditions: dose 10-20 mg/kg, time 14.0 day
[13] = target: T1, Macrophage colony-stimulating factor 1 receptor (Mus musculus) (UniProt P09581); experiment: Induction of thermal stabilization of CSF-1R in female C57BL/6 mouse BMDM cells assessed as increase in melting temperature at 100 nM incubated for 1 hrs under 52 to 68 degreeC by CETSA; format: cell-based
T1 sequence (whole entry): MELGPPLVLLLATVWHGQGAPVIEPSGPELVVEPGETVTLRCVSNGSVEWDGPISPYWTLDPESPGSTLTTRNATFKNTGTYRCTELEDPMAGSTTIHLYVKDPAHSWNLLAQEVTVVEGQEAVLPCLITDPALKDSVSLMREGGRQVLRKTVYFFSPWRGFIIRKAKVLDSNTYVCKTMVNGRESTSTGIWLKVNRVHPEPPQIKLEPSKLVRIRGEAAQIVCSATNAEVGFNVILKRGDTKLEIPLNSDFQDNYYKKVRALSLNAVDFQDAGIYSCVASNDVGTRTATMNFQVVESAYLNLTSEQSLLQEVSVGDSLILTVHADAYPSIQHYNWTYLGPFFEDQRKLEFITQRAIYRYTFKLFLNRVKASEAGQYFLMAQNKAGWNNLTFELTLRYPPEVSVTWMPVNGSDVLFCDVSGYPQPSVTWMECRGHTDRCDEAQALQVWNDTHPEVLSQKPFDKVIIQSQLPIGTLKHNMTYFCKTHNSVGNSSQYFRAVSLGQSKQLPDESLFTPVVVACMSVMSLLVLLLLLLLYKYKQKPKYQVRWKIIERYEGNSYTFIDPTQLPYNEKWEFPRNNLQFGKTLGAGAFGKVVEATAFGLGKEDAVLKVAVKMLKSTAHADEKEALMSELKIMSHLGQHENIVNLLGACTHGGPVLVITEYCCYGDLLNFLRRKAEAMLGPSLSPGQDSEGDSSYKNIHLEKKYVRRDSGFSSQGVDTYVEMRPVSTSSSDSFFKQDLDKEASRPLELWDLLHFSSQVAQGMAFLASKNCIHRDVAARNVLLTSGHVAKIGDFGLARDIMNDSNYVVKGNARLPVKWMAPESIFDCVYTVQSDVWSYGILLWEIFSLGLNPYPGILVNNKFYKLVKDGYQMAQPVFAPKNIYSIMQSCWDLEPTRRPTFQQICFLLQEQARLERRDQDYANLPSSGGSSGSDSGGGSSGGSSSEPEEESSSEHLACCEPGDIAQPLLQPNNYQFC

[14] = tested on: MC-38; experiment: Induction of apoptosis in mouse MC38 cells assessed as early apoptotic cells at 30 nM by Annexin V/PI staining based flow cytometric analysis (reference value: 1.91 %); format: functional
[15] = Cmax in Sprague-Dawley rat at 10 mg/kg, po; format: ADME, organism-based; conditions: in vivo
[16] = tested on: MC-38; experiment: Induction of apoptosis in mouse MC38 cells cocultured with condition medium of M2 macrophages assessed as late apoptotic cells at 10 nM by Annexin V/PI staining based flow cytometric analysis (reference value: 1.66 %); format: functional
[17] = target: T2, Macrophage colony-stimulating factor 1 receptor (Homo sapiens, UniProt P07333); experiment: Inhibition of CSF-1R (unknown origin) at 1 uM
T2 sequence (P07333 whole entry): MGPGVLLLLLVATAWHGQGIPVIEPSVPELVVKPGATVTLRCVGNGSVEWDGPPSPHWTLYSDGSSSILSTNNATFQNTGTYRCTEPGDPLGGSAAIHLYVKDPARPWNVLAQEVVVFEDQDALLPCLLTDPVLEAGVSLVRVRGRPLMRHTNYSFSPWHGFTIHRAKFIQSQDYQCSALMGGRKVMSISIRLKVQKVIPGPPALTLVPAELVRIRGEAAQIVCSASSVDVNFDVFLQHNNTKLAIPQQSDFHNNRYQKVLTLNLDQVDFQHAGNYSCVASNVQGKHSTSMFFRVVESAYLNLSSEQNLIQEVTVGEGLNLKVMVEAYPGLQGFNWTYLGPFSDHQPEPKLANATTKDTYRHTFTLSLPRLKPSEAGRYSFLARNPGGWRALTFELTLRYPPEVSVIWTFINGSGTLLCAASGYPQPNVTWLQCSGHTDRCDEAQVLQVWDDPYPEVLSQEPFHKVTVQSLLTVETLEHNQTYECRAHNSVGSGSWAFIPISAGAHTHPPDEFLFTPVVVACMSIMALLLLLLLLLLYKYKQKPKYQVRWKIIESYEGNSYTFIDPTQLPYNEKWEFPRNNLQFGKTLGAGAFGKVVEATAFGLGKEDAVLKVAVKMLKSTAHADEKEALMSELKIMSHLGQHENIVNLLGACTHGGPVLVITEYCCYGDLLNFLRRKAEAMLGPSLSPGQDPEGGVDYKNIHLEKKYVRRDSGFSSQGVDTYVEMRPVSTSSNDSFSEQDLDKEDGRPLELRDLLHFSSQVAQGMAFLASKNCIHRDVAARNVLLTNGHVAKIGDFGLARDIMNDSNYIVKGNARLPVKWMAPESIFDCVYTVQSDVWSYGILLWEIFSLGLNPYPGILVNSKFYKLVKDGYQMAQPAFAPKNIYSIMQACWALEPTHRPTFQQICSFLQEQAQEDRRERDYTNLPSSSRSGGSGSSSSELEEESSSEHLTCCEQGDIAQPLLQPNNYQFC

[18] = tested on: MC-38; experiment: Antitumor activity against mouse MC38 cells allografted in C57BL/6 mouse model assessed as reduction in tumor volume at 10 to 20 mg/kg, ip administered once daily for 14 days; format: functional, organism-based; conditions: dose 10-20 mg/kg, time 14.0 day
[19] = Terminal half-life in Sprague-Dawley rat at 1 mg/kg, iv; format: ADME, organism-based; conditions: in vivo, read-out: beta t1/2 (converted)
[20] = target: T2, Macrophage colony-stimulating factor 1 receptor; experiment: Inhibition of CSF-1R (unknown origin)
[21] = tested on: MC-38; experiment: Inhibition of cell proliferation in mouse MC38 cells at 10 to 100 nM incubated for 20 hrs by CCK8 assay; format: functional, cell-based; conditions: dose 10-100 nM
[22] = tested on: MC-38; experiment: Inhibition of cell viability in mouse MC38 cells cocultured with condition medium of M2 macrophages at 10 to 100 nM by MTT assay; format: functional, cell-based; conditions: dose 10-100 nM
[23] = Terminal half-life in Sprague-Dawley rat at 10 mg/kg, po; format: ADME, organism-based; conditions: in vivo, read-out: beta t1/2 (converted)
[24] = tested on: MC-38; experiment: Antitumor activity against mouse MC38 cells allografted in C57BL/6 mouse model assessed as reduction in tumor weight at 10 to 20 mg/kg, ip administered once daily for 14 days; format: functional, organism-based; conditions: dose 10-20 mg/kg, time 14.0 day
[25] = tested on: MC-38; experiment: Inhibition of cell proliferation in mouse MC38 cells cocultured with condition medium of M2 macrophages at 10 to 100 nM incubated for 20 hrs by CCK8 assay; format: functional, cell-based; conditions: dose 10-100 nM
[26] = tested on: BMDM; experiment: Induction of repolarization of M2 like macrophage into M1 phenotype in female C57BL/6 mouse BMDM cells assessed as increase in Il6 mRNA expression at 10 to 100 nM stimulated with mouse IL4/IL-13 for 24 hrs followed by compound addition and measured after 24 hrs by qPCR analysis; format: functional, cell-based; conditions: dose 10-100 nM

For `Cc1nc(NC(=O)N[C@@H]2CCCC[C@H]2O)ccc1Oc1c[nH]c2ncc(Cl)cc12`, the Activity [1] was “Active”, the Activity [2] was 13.61% and the AUC(0-inf) [3] was 527 ng·h/mL. For the same compound, the Activity [4] was “Active”, the Activity [5] was 54% and the bioavailability [6] was 79.2%. The inhibition [7] was “Minimal_effect”, the Activity [8] was 38% and the Activity [9] was 5.67%. For the same compound, the inhibition [10] was “Active”, the Activity [11] was 4.88% and the Activity [12] was “Active”. The Activity [13] was “Active”, the Activity [14] was 1.71% and the Cmax [15] was 1580 ng/mL. The Activity [16] was 3.25%, the inhibition [17] was “Active” and the Activity [18] was “Active; Better Activity Observed Than Plx3397-Treated Group”. The half-life [19] was 1.2 h, the IC50 [20] was 20.1 nM and the inhibition [21] was “Minimal_effect”. For the same compound, the inhibition [22] was “Active”, the half-life [23] was 1.86 h and the Activity [24] was “Active; Lower Tumor Weight Observed Than That Of Plx3397 Treated Group”. For the same compound, the inhibition [25] was “Active” and the Activity [26] was “Active”.
